Patent US20240197938A1, “ANTIMICROBIAL COMPOUNDS BASED ON GLUCOHEPTONIC ACIDS AND THEIR SALTS” (HARCROS CHEMICALS, INC., priority 2021, published 2024)

Columns and labels:
Format in all cases: cell-based
[1] = test system: Candida albicans; test: ASTM E2315-16 Time-Kill Procedure; conditions: for Log Reduction: 30 seconds
Procedure: (§1) Select compounds were tested for antimicrobial activity using ASTM method […]-16 (Standard Guide for Assessment of Antimicrobial Activity using a Time-Kill Procedure). Six microbes were tested: Candida albicans, Staphylococcus aureus, Staphylococcus epidermidis. Escherichia coli, Salmonella abony, and Listeria monocytogenes. Four chlorhexidine salts were tested: chlorhexidine di-α-glucoheptonate (Sample G), chlorhexidine di-β73-glucoheptonate (Sample H), chlorhexidine digluconate (Sample I), and chlorhexidine diacetate (Sample P). Both chlorhexidine diglucoheptonate salts were prepared at a 2:1 molar ratio of glucoheptonic acid to chlorhexidine. Dilutions of each salt were prepared using sterile water (20-30 ppm hardness), to achieve the desired wt. % concentration. Two glucoheptonic acids were evaluated for antimicrobial activity against the same six microbes as Example 13. Sample L was α-glucoheptonic acid. Sample M was β73-glucoheptonic acid. Benzalkonium salts were also tested using the same procedure as set forth in Example 13. The samples were benzalkonium chloride (C12-C16) (Sample C), benzalkonium chloride (C12-C14) (Sample D), benzalkonium chloride in combination with a stoichiometric amount of α-glucoheptonate (Sample F), and benzalkonium chloride in combination with a molar excess of α-glucoheptonate (Sample N). Sample F was prepared by mixing and extensively heating a stoichiometric quantity (1:1) of sodium α-glucoheptonate with benzalkonium chloride, typified by the C12-14 alkyl chain. Sample N was prepared by simply blending benzalkonium chloride, typified by the C12-16 chain, with a molar excess of sodium α-glucoheptonate (1.6:1). Both Samples F and N contain sodium chloride.

[2] = test system: Staphylococcus epidermidis; test: ASTM E2315-16 Time-Kill Procedure; conditions: 30 seconds
Procedure: as §1

[3] = test system: Staphylococcus aureus; test: ASTM E2315-16 Time-Kill Procedure; conditions: 30 seconds
Procedure: as §1

[4] = test system: all microbes (Candida albicans, Staphylococcus aureus, Staphylococcus epidermidis, Escherichia coli, Salmonella abony, Listeria monocytogenes); test: ASTM E2315-16 Time-Kill Procedure, average across all microbes; conditions: for Log Reduction, Average, all microbes: 30 seconds; for average Log Reduction (LR) in microbial population across all microbes: 10 minutes
Procedure: Select compounds were tested for antimicrobial activity using ASTM method […]-16 (Standard Guide for Assessment of Antimicrobial Activity using a Time-Kill Procedure). Six microbes were tested: Candida albicans, Staphylococcus aureus, Staphylococcus epidermidis. Escherichia coli, Salmonella abony, and Listeria monocytogenes. Four chlorhexidine salts were tested: chlorhexidine di-α-glucoheptonate (Sample G), chlorhexidine di-β73-glucoheptonate (Sample H), chlorhexidine digluconate (Sample I), and chlorhexidine diacetate (Sample P). Both chlorhexidine diglucoheptonate salts were prepared at a 2:1 molar ratio of glucoheptonic acid to chlorhexidine. Dilutions of each salt were prepared using sterile water (20-30 ppm hardness), to achieve the desired wt. % concentration. Samples G, H, I, and P were also tested at a concentration of 0.60 wt % active and evaluated for the average Log Reduction in microbial population at 10 minutes, across all microbes. A further test was conducted at a concentration of 1.0 wt % active and evaluated for the average Log Reduction in microbial population at 10 minutes, across all microbes. Benzalkonium salts were also tested using the same procedure as set forth in Example 13. The samples were benzalkonium chloride (C12-C16) (Sample C), benzalkonium chloride (C12-C14) (Sample D), benzalkonium chloride in combination with a stoichiometric amount of α-glucoheptonate (Sample F), and benzalkonium chloride in combination with a molar excess of α-glucoheptonate (Sample N). Sample F was prepared by mixing and extensively heating a stoichiometric quantity (1:1) of sodium α-glucoheptonate with benzalkonium chloride, typified by the C12-14 alkyl chain. Sample N was prepared by simply blending benzalkonium chloride, typified by the C12-16 chain, with a molar excess of sodium α-glucoheptonate (1.6:1). Both Samples F and N contain sodium chloride. A further antimicrobial test was conducted to determine the log reduction at 10 minutes. Samples C, D, F, and N are as defined above.

[5] = test system: Listeria monocytogenes; test: ASTM E2315-16 Time-Kill Procedure; conditions: for Log Reduction: 30 seconds
Procedure: as §1, with “concentration.” for “concentration. Two glucoheptonic acids were evaluated for antimicrobial activity against the same six microbes as Example 13. Sample L was α-glucoheptonic acid. Sample M was β73-glucoheptonic acid.”

[6] = test system: Escherichia coli; test: ASTM E2315-16 Time-Kill Procedure; conditions: 30 seconds
Procedure: as §1, with “concentration.” for “concentration. Two glucoheptonic acids were evaluated for antimicrobial activity against the same six microbes as Example 13. Sample L was α-glucoheptonic acid. Sample M was β73-glucoheptonic acid.”

[7] = test system: Salmonella abony; test: ASTM E2315-16 Time-Kill Procedure; conditions: 30 seconds
Procedure: as §1, with “concentration.” for “concentration. Two glucoheptonic acids were evaluated for antimicrobial activity against the same six microbes as Example 13. Sample L was α-glucoheptonic acid. Sample M was β73-glucoheptonic acid.”

| Compound | Log Reduction ([1]; 0.20% (wt. %)) | Log Reduction ([1]; 0.60% (wt. %)) | Log Reduction ([1]; 1.00% (wt. %)) | Log Reduction ([2]; 0.20% (wt. %)) | Log Reduction ([2]; 0.60% (wt. %)) | Log Reduction ([2]; 1.00% (wt. %)) | Log Reduction ([3]; 0.20% (wt. %)) | Log Reduction ([3]; 0.60% (wt. %)) | Log Reduction ([3]; 1.00% (wt. %)) | Log Reduction, Average, all microbes ([4]; 0.20% (wt. %)) | Log Reduction, Average, all microbes ([4]; 0.60% (wt. %)) | Log Reduction, Average, all microbes ([4]; 1.00% (wt. %)) | average Log Reduction (LR) in microbial population across all microbes ([4]; 0.60 wt % active) | average Log Reduction (LR) in microbial population across all microbes ([4]; 1.0 wt % active) | Log Reduction ([5]; 0.20% (wt. %)) | Log Reduction ([5]; 0.60% (wt. %)) | Log Reduction ([5]; 1.00% (wt. %)) | Log Reduction ([6]; 0.20% (wt. %)) | Log Reduction ([6]; 0.60% (wt. %)) | Log Reduction ([6]; 1.00% (wt. %)) | further results |
| --- | --- | --- | --- | --- | --- | --- | --- | --- | --- | --- | --- | --- | --- | --- | --- | --- | --- | --- | --- | --- | --- |
| N=C(NCCCCCCNC(=N)NC(=N)Nc1ccc(Cl)cc1)NC(=N)Nc1ccc(Cl)cc1.O=C(O)C(O)C(O)C(O)C(O)C(O)CO.O=C(O)C(O)C(O)C(O)C(O)C(O)CO [Sample G, chlorhexidine di-α-glucoheptonate] | 0.75 | 1.45 | 4.56 | 0.95 | 1.91 | 3.65 | 0.77 | 1.07 | 3.06 | 1.74 | 2.12 | 3.90 | 3.85 | 5.34 | 1.34 | 1.49 | 4.99 | 3.57 | 3.66 | 3.77 | performance in the Time-Kill Test ([1]; in words): performed very strongly; performance in the Time-Kill Test ([5]; in words): performed very strongly; Log Reduction ([7]; 0.20% (wt. %)): 3.04; Log Reduction ([7]; 0.60% (wt. %)): 3.14; Log Reduction ([7]; 1.00% (wt. %)): 3.39 |
| N=C(NCCCCCCNC(=N)NC(=N)Nc1ccc(Cl)cc1)NC(=N)Nc1ccc(Cl)cc1.O=C(O)[C@H](O)[C@@H](O)[C@H](O)[C@H](O)CO.O=C(O)[C@H](O)[C@@H](O)[C@H](O)[C@H](O)CO [Sample I, chlorhexidine digluconate] | 2.91 | 4.35 | 6.40 | 2.00 | 3.08 | 3.25 | 1.77 | 3.07 | 3.37 | 2.24 | 3.22 | 3.85 | 4.84 | 5.46 | 1.99 | 3.13 | 3.91 | 2.93 | 3.07 | 3.27 | Log Reduction ([7]; 0.20% (wt. %)): 1.86; Log Reduction ([7]; 0.60% (wt. %)): 2.63; Log Reduction ([7]; 1.00% (wt. %)): 2.89 |
